Laboratory results published in patent US20220118123A1, “COMBINATION OF AR ANTAGONISTS AND TARGETED THORIUM CONJUGATES” (Bayer Aktiengesellschaft, priority 2019, published 2022).

Key:
C4-2 cells [1] = experiment: in vitro cytotoxicity of PSMA-TTC with AR antagonist pre-treatment, cell titer Glo cell viability; format: cell-based; details: then PSMA-TTC dose titration (50 MBq/mg), 5 days incubation
Description: (§1) The effects of PSMA-TTC compound A′ and compound B (darolutamide, ODM-201) or compound C (enzalutamide) in PSMA overexpressing prostate cancer cell lines LNCaP and C4-2 were investigated in vitro. LNCaP (hormone sensitive) and C4-2 (hormone insensitive) cells were co-cultured in presence of either enzalutamide or darolutamide/ODM-201 and the effect on cell binding of PSMA-conjugate and cytotoxicity of PSMA-TTC was evaluated.
C4-2 and LNCaP cells were seeded in similar cell medium (RPMI/10% FBS/1% HEPES/1% MEM NEAA/1% NaPyruvate/1% L-glutamine). One day after seeding, cells were exposed to either enzalutamide (1 μM), darolutamide (=ODM-201) (10 μM) or DMSO (0.1% (v/v); reference). Seven, 14 and 21 days after co-culturing, the cells were analyzed for cell surface binding of PSMA antibody-chelator conjugate by flow cytometry. […] In addition, cells pre-treated in the presence or absence of AR antagonists at the respective concentrations entered cytotoxicity experiments using cell titer Glo (Promega) as readout for cell viability.
Respective cells pretreated for 0 or 7 days with AR antagonists were seeded on Day −1 at an appropriate cell density (e.g. 1000 cells/well). […] Cell viability was measured after incubation for 5 days in the presence of dose titrations of PSMA-TTC or corresponding controls. […]

[2] = tested on: ST1273 human patient derived prostate cancer model; experiment: anti-tumor activity in ST1273 patient derived prostate cancer xenograft model; format: in vivo, mice
C4-2 cells [3] = experiment: cell surface binding of PSMA antibody-chelator conjugate by flow cytometry after co-culture with AR antagonists; format: cell-based; details: 10 μM darolutamide; 7, 14 and 21 days co-culturing; saturating conjugate concentrations; vs DMSO reference
Description: as §1
C4-2 and LNCaP cells were seeded in similar cell medium (RPMI/10% FBS/1% HEPES/1% MEM NEAA/1% NaPyruvate/1% L-glutamine). One day after seeding, cells were exposed to either enzalutamide (1 μM), darolutamide (=ODM-201) (10 μM) or DMSO (0.1% (v/v); reference). Seven, 14 and 21 days after co-culturing, the cells were analyzed for cell surface binding of PSMA antibody-chelator conjugate by flow cytometry. The binding of PSMA conjugate at saturating concentrations increased in both cell lines after treatment with the AR antagonists: maximal binding of PMSA conjugate was increased by 1 μM enzalutamide by 1.9 to 2.8 fold and by 10 μM darolutamide by 1.7-3.6 fold. Similar results were obtained in LNCaP cells. In addition, cells pre-treated in the presence or absence of AR antagonists at the respective concentrations entered cytotoxicity experiments using cell titer Glo (Promega) as readout for cell viability.

[4] = tested on: KUCaP-1 human patient derived prostate cancer model; experiment: anti-tumor activity in KUCaP-1 patient derived prostate cancer xenograft model; format: in vivo, mice; details: KUCaP-1, day 32
[5] = ST1273, 26 days after dosing/start of treatment

CNC(=O)c1ccc(N2C(=S)N(c3ccc(C#N)c(C(F)(F)F)c3)C(=O)C2(C)C)cc1F [enzalutamide]
sensitivity to growth inhibition by PSMA-TTC (C4-2 cells [1]; enzalutamide 1 μM for 7 days): increased sensitivity to growth inhibition by PSMA-TTC | complete response, share of the mice [2, 5]: 33% | partial response, share of the mice [2, 5]: 67% | CR, complete response (mice/group) ([2]; ST1273, day 26): (CR: 3/9, | PR, partial response (mice/group) ([2]; ST1273, day 26): PR: 6/9) | Response rate (RR) ([2]; ST1273, day 26, PSMA-TTC 250 kBq/kg single i.v., enzalutamide 30 mg/kg QD×28 p.o.): RR: 100%

CC(O)c1cc(C(=O)N[C@@H](C)Cn2ccc(-c3ccc(C#N)c(Cl)c3)n2)n[nH]1 (stereo partly drawn) [darolutamide, N-((S)-1-(3-(3-Chloro-4-cyanophenyl)-1H-pyrazol-1-yl-)-propan-2-yl)-5-(1-hydroxyethyl)-1H-pyrazole-3-carboxamide]
increase of maximal binding of PSMA conjugate (C4-2 cells [3]): 1.7-3.6 fold | sensitivity to growth inhibition by PSMA-TTC (C4-2 cells [1]; darolutamide 10 μM for 7 days): increased sensitivity to growth inhibition by PSMA-TTC | PD, progressive disease (mice/group) [4]: (PD: 10/10) | Response rate (RR) ([4]; PSMA-TTC 150 kBq/kg i.v., darolutamide 200 mg/kg QD p.o.): RR: 0%
